Test results reported in patent US6770673B1, “Therapeutic uses of arglabin in combination with other chemotherapy agents” (priority 1997, dated 2004).
Marks after values point to notes of the source that are not given here.

How the values were obtained:
[1] = test system: immune system; assay: Indices of patients' immunity, rozette forming and phagocytosis methods (Table X); type: in vivo, human
Method: The indices of immune system were determined using rozette forming and phagocytosis methods. […] Eleven indices of cellular and humoral immunity were measured from each patient in order to evaluate immune status. The following indices were determined on 0.05 ml of peripheral blood: absolute and relative amount of T- and B-lymphocytes, amount of non-differentiated “zero” cells, adhesion and phagocyte activity of neutrophils, hemogram, level of serum immunoglobulins. Indices were determined before treatment, on days 2, 5 and 14 of treatment, and after treatment.
Mean values of immunological indices were evaluated with regression analysis. Functional conditions of the immune system were estimated using integral indices such as a mean intensity (correlation) expressed in relative units.

[2] = test system: Leucemia P-388; assay: Implanted leukemia, inhibition / survival; type: in vivo, mice and rats
[3] = test system: Alveolar Cancer of the liver; assay: Inhibition of tumor growth in implanted tumors; type: in vivo, mice and rats; details: dose 50 mg/kg
[4] = test system: Pliss lymphosarcoma; assay: Inhibition of tumor growth in implanted tumors; type: in vivo, rats; details: dose 30 mg/kg
[5] = test system: PC-1; assay: Inhibition of tumor growth in implanted tumors; type: in vivo, mice and rats; details: dose 30 mg/kg
[6] = test system: sarcoma 45; assay: Disturbance of DNA synthesis in tumors (inhibition index); type: in vivo, rats; details: drug resistant sarcoma 45, alone
[7] = test system: immune system; assay: Immune system modulation in mice immunodepressed with cyclophosphamide; type: in vivo; details: 10 mg/kg for 10 days
Method: Mice were immunodepressed by administration of 200 mg/kg of cyclophosphamide. […] The Hemagglutination test and delayed-type hypersensitivity reaction were determined before and after administration of drug.
The increased number of T-lymphocytes was accompanied by an elevation in the T-helper subpopulation as well as the T-suppressor subpopulation, although to a lesser extent.

[8] = test system: Sarcoma-37; assay: Inhibition of tumor growth in implanted tumors; type: in vivo, mice and rats; details: dose 30 mg/kg
[9] = test system: immune system; assay: Immunological indices in August rats with Pliss lymphosarcoma; type: in vivo; details: Increased; about 50 mg/kg IP daily for 10 days
Description: Additional immunological data were obtained from an “August” line of rats, weighing 140-160 g, with and without Pliss lymphosarcoma. […] Results are summarized in Table V. Overall, lyophilized-dimethylaminoarglabin hydrochloride stimulated delayed type hypersensitivity, but reduced all other studied indices in intact rats. In rats with Pliss Lymphosarcoma, the immune system was stimulated, as all studied indices increased.

[10] = test system: hepatocytes; assay: Viability of primary cultures of normal cells, trypan blue exclusion; type: cell-based, mouse; details: 18 hours
Method: (§1) Mouse mastocytoma (P-815), myeloma (Z-P3x63Ag8.653 and Pai) and human erthyroleukemia (K-562) cell lines were used. Primary cultures of normal mouse hepatocytes were isolated from mouse liver using collagenase. Mouse splenocytes were isolated using a glass homogenizer. Marrow cells were obtained by washing the bone marrow. See, for example, Shears, S. B. and Kirk, C. J. (1984), Biochem. J. 219:375-382.
(§2) Cells were cultured in RPMI-1640 medium supplemented with 10% fetal calf serum, 100 mM L-glutamine and 50 μg/ml gentamycin at 37° C. under 5% CO2. Cells were seeded into 24-well plates at a density of 50,000 cells/well and grown until near confluency, approximately 2 days, then transferred to 96-well plates at the same density. […] Viability of the cells was determined by trypan blue exclusion. […] Approximately 25% of K-562 and X-653 cells survived at a concentration of 12 μg/ml, and the same proportion of P-815 cells survived at a concentration of about 25 μg/ml.
(§3) Viability was measured by trypan blue exclusion. […] At a concentration of 320 μg/ml, the number of viable splenocytes was reduced by 50% in comparison to the control. At concentrations of 640 μg/ml and 1280 μg/ml, 40% and 10%, respectively, of the splenocytes were still viable. At these same concentrations, approximately 50% and 25% of hepatocytes were still viable. Marrow cells were more sensitive to dimethylaminoarglabin hydrochloride. At a concentration of 160 μg/ml, only about 50% of the marrow cells were still viable. Increasing the concentration to 320 μg/ml reduced the viability to about 25%.

[11] = test system: marrow cells; assay: as above; type: cell-based, mouse; details: 18 hours
Method: as §1, §2, §3

[12] = test system: splenocytes; assay: as above; type: cell-based, mouse; details: 18 hours
Method: as §1, §2, §3

[13] = test system: immune system; assay: Immunologic status of patients of the first clinical trial, rozette-formation and phagocytosis; type: in vivo, human
Method: Immunologic status of the patients was evaluated using standard methods of rozette-formation and phagocytosis. These indices were studied prior to treatment, during treatment and after treatment. Blood samples were taken from a finger. […] A general change in the ratio of T-helper lymphocytes to T-suppressor lymphocytes was due to an increase of T-suppressor lymphocytes. […] Total number of leukocytes increased up to 9.4×10^9/L and the total number of lymphocytes increased as well. The levels of all types of immunoglobulins increased.
By day 20 of treatment, all indices returned to normal. In some patients, indices returned to normal by day 14. In patients that were analyzed 30 days after treatment, a significant increase in the number of T-lymphocytes and adhesiveness of neutrophils was observed.

[14] = test system: L-1210; assay: Implanted leukemia, survival; type: in vivo, mice and rats; details: dose 30 mg/kg
[15] = test system: Sarcoma-45 resistant to prospidine; assay: Inhibition of growth of resistant tumour strains; type: in vivo, rats; details: dose 50 mg/kg

CC1=CCC23OC2(C)CCC2C(CN(C)C)C(=O)OC2C13.Cl (centres unmarked) [Dimethylaminoarglabin hydrochloride]
average time of retention (rat, in vivo): about 67 hours | brain tissue concentration (rat, in vivo): 23.9 µg/g | concentration in the liver (rat, in vivo): 228.6 µg/g | maximum lung concentration (rat, in vivo): 149.4 µg/g | maximum spleen concentration (rat, in vivo): 159 µg/g | penetration through the blood-brain barrier (rat, in vivo): able to penetrate through the blood-brain barrier | total clearance (rat, in vivo): 0.5 mL/min | maximal level in the blood serum (rat, in vivo, iv, 2 mg/kg): 30 µg/mL | time of maximal level in the blood serum (rat, in vivo, iv, 2 mg/kg): within one hour | volume of distribution (rat, in vivo, iv, 2 mg/kg): large | kidney concentration (rats, 24 hours): 56.6 µg/g | concentration in skeletal muscle (rats, within three hours after administration): 176.4 µg/g | level of non-differentiated "zero" cells ([1]; 2nd-5th day of treatment): increased | percentage of T-lymphocytes and T-helper lymphocytes ([1]; 2nd-5th day of treatment): reduced considerably | immunoglobulins A, M and G ([1]; after the treatment): increased amount | Leucemia P-388 PALT - increase in survival ([2]; dose 30 mg/kg): +144% | Leucemia P-388 PALT - increase in survival ([2]; dose 50 mg/kg): +109.0% | Inhibition of Tumour Growth, % - Alveolar Cancer of the liver [3]: 80.0% | Inhibition of Tumour Growth, % - Pliss lymphosarcoma [4]: 79.6% | Inhibition of Tumour Growth, % - PC-1 [5]: 84.3* % | DNA inhibition index [6]: 99% | leukopenia and lymphopenia [7]: reduced the leukopenia and lymphopenia | Inhibition of Tumour Growth, % - Sarcoma-37 [8]: 78.2* % | Delayed type hypersensitivity, Rats with Pliss Lymphosarcoma After Treatment [9]: 89.9-132.2% | Hemagglutination (RHG), Rats with Pliss Lymphosarcoma After Treatment [9]: 82.2-142.6% | Nitroblue tetrazolium (NBT), Rats with Pliss Lymphosarcoma After Treatment [9]: 79.2-175.4% | Spontaneous-erythrocyte rosette forming (E-ROK), Rats with Pliss Lymphosarcoma After Treatment [9]: 94.8-162.5% | hepatocytes still viable ([10]; 640 μg/ml): approximately 50% | hepatocytes still viable ([10]; 1280 μg/ml): about 25% | marrow cells still viable ([11]; 160 μg/ml): approximately 50% | marrow cells viability ([11]; 320 μg/ml): about 25% | number of viable splenocytes reduced in comparison to the control ([12]; 320 μg/ml): 50% | splenocytes still viable ([12]; 640 μg/ml): 40% | splenocytes still viable ([12]; 1280 μg/ml): 10% | neutrophil adhesiveness ([13]; days 3-5 of treatment, decreased from 42%): 28.5% | undifferentiated lymphocytes ([13]; days 3-5 of treatment, increased from 21.5%): 42.2% | number of T-helper lymphocytes ([13]; days 3-5 of treatment, reduced from 50%): 37.3% | number of T-lymphocytes ([13]; days 3-5 of treatment, reduced from 57%): 40.1% | total number of leukocytes increased up to ([13]; during treatment): up to 9.4 ×10^9/L | L-1210 - increase in survival [14]: +60% | Inhibition of Tumour Strains Growth, % - Resistant Forms - Sarcoma-45 to prospidine [15]: 87.4*** %
